These results are taken from patent publication US11377442B2, “Small molecule agonists and antagonists of NR2F6 activity” (ZANDER THERAPEUTICS, INC., priority 2016, dated 2022).

The target of the test is T1, NR2F6 (Homo sapiens, UniProt P10588).
T1 construct: expressed in transfected cells; also transient transfection
T1 sequence (P10588 1-404): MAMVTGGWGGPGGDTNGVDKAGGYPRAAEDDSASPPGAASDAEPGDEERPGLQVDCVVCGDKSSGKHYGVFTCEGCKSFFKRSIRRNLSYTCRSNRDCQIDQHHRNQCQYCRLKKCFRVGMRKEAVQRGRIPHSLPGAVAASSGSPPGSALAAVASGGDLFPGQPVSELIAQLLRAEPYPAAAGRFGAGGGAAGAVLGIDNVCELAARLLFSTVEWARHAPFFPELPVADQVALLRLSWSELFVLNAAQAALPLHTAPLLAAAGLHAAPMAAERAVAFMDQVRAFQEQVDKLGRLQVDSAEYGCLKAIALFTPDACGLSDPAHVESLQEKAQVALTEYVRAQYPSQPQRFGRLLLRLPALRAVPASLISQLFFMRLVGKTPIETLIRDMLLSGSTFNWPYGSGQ
The experiment in a line: NR2F6 agonist screening, Firefly signal cmpd/DMSO. In kind it is cell-based. The note with it: for Firefly/Renilla (NR2F6 stable, clone F4): ratio Firefly/Renilla; for Firefly, NR2F6 stable (clone F4)/pGL4: ratio of Firefly in NR2F6 stable clone F4 to pGL4.

[1] abbreviates: C11 analogs follow set (Tables 2-10).

In the case of `O=c1oc2ccc(Cl)cc2cc1S(=O)(=O)c1ccc(Cl)cc1` [Compound C147], under setting [1], the “Firefly, cmpd/DMSO repeat 1” value turned out to be 2.6 and the “Firefly, cmpd/DMSO repeat 2” value turned out to be 2.9.
For the compound `O=c1oc2ccc(Cl)cc2cc1S(=O)(=O)c1ccc(Cl)c(Cl)c1` [Compound C151], under setting [1], the “Firefly, cmpd/DMSO repeat 1” value is on record as 3.6 and the “Firefly, cmpd/DMSO repeat 2” value was 5.5.
Regarding `O=c1oc2ccc([N+](=O)[O-])cc2cc1S(=O)(=O)c1ccc(Cl)c(Cl)c1` [Compound C153], under setting [1], the “Firefly, cmpd/DMSO repeat 1” value was 6.5 and the “Firefly, cmpd/DMSO repeat 2” value came to 9.0.
`COc1ccc(S(=O)(=O)c2cc3cc(Br)ccc3oc2=O)cc1OC` [Compound C154]: under setting [1], the “Firefly, cmpd/DMSO repeat 1” value is given as 35.4 and the “Firefly, cmpd/DMSO repeat 2” value turned out to be 35.4. Also, under “Table 13”, the “Firefly/Renilla (NR2F6 stable, clone F4)” value was determined as 1.6; the “Firefly, NR2F6 stable (clone F4)/pGL4” value was 9.1; the “Firefly, cmpd/DMSO repeat 1” value is 35.4; the “Firefly, cmpd/DMSO repeat 2” value stood at 35.4.
On to `COc1ccc(S(=O)(=O)c2cc3cc(Cl)ccc3oc2=O)cc1OC` [Compound C155], for which, under setting [1], the “Firefly, cmpd/DMSO repeat 1” value was 37.3 and the “Firefly, cmpd/DMSO repeat 2” value is reported as 33.3. Where the note is “Table 12”, the “Firefly/Renilla (NR2F6 stable, clone F4)” value is reported as 2.0; the “Firefly, NR2F6 stable (clone F4)/pGL4” value turned out to be 10.9; the “Firefly, cmpd/DMSO repeat 1” value amounted to 37.3; the “Firefly, cmpd/DMSO repeat 2” value is listed as 33.3.
Regarding `COc1ccc2oc(=O)c(S(=O)(=O)c3ccc(OC)c(OC)c3)cc2c1` [Compound C156], under setting [1], the “Firefly, cmpd/DMSO repeat 1” value is given as 1.0 and the “Firefly, cmpd/DMSO repeat 2” value is 1.0.
With `COc1ccc2oc(=O)c(S(=O)(=O)c3ccc(F)c(Cl)c3)cc2c1` [Compound C158], under setting [1], the “Firefly, cmpd/DMSO repeat 1” value was 1.5 and the “Firefly, cmpd/DMSO repeat 2” value was found to be 1.2.
On to `O=C(Nc1ccc(F)cc1)c1ccc2oc(=O)c(S(=O)(=O)c3ccc(F)cc3)cc2c1` [Compound C159], for which, under setting [1], the “Firefly, cmpd/DMSO repeat 1” value was 0.9 and the “Firefly, cmpd/DMSO repeat 2” value amounted to 1.2.
For the compound `Cc1ccccc1NC(=O)c1ccc2oc(=O)c(S(=O)(=O)c3ccc(F)cc3)cc2c1` [Compound C160], under setting [1], the “Firefly, cmpd/DMSO repeat 1” value stood at 22.9 and the “Firefly, cmpd/DMSO repeat 2” value is 20.2. Also, where the note is “Table 12”, the “Firefly/Renilla (NR2F6 stable, clone F4)” value is on record as 2.4; the “Firefly, NR2F6 stable (clone F4)/pGL4” value is 7.2; the “Firefly, cmpd/DMSO repeat 1” value came to 22.9; the “Firefly, cmpd/DMSO repeat 2” value turned out to be 20.2.
In the case of `Cc1ccc(NC(=O)c2ccc3oc(=O)c(S(=O)(=O)c4ccccc4)cc3c2)cc1` [Compound C161], under setting [1], the “Firefly, cmpd/DMSO repeat 1” value was 35.4 and the “Firefly, cmpd/DMSO repeat 2” value came to 39.0. Where the note is “Table 13”, the “Firefly/Renilla (NR2F6 stable, clone F4)” value turned out to be 1.3; the “Firefly, NR2F6 stable (clone F4)/pGL4” value is 8.1; the “Firefly, cmpd/DMSO repeat 1” value worked out at 35.4; the “Firefly, cmpd/DMSO repeat 2” value is recorded as 39.0.
As for `Cc1ccc(NC(=O)c2ccc3oc(=O)c(S(=O)(=O)c4ccc(C)cc4)cc3c2)cc1` [Compound C162], under setting [1], the “Firefly, cmpd/DMSO repeat 1” value is recorded as 20.9 and the “Firefly, cmpd/DMSO repeat 2” value was 20.6.
With `Cc1ccc(NC(=O)c2ccc3oc(=O)c(S(=O)(=O)c4ccc(F)cc4)cc3c2)cc1` [Compound C163], under setting [1], the “Firefly, cmpd/DMSO repeat 1” value was 2.0 and the “Firefly, cmpd/DMSO repeat 2” value came to 5.2.
With `Cc1ccc(NC(=O)c2ccc3oc(=O)c(S(=O)(=O)c4ccccc4)cc3c2)c(C)c1` [Compound C164], under setting [1], the “Firefly, cmpd/DMSO repeat 1” value is 29.3 and the “Firefly, cmpd/DMSO repeat 2” value is given as 19.6. In addition, for the setting “Table 12”, the “Firefly/Renilla (NR2F6 stable, clone F4)” value is given as 2.1; the “Firefly, NR2F6 stable (clone F4)/pGL4” value is 8.2; the “Firefly, cmpd/DMSO repeat 1” value is recorded as 29.3; the “Firefly, cmpd/DMSO repeat 2” value came to 19.6.
Turning to `Cc1ccc(NC(=O)c2ccc3oc(=O)c(S(=O)(=O)c4ccc(Cl)cc4)cc3c2)c(C)c1` [Compound C166], under setting [1], the “Firefly, cmpd/DMSO repeat 1” value is on record as 3.4 and the “Firefly, cmpd/DMSO repeat 2” value came out at 4.2.
The matching figures for `Cc1ccc(NC(=O)c2ccc3oc(=O)c(S(=O)(=O)c4ccccc4)cc3c2)cc1C` [Compound C167]: 1.0 and 0.7.
With `Cc1ccc(S(=O)(=O)c2cc3cc(C(=O)Nc4ccc(C)c(C)c4)ccc3oc2=O)cc1` [Compound C168], under setting [1], the “Firefly, cmpd/DMSO repeat 1” value came out at 11.8 and the “Firefly, cmpd/DMSO repeat 2” value came out at 11.4.
For `Cc1ccc(NC(=O)c2ccc3oc(=O)c(S(=O)(=O)c4ccc(F)cc4)cc3c2)cc1C` [Compound C169], under setting [1], the “Firefly, cmpd/DMSO repeat 1” value is 8.8 and the “Firefly, cmpd/DMSO repeat 2” value amounted to 10.6.
Turning to `Cc1ccc(NC(=O)c2ccc3oc(=O)c(S(=O)(=O)c4ccc(Cl)cc4)cc3c2)cc1C` [Compound C170], under setting [1], the “Firefly, cmpd/DMSO repeat 1” value is 1.7 and the “Firefly, cmpd/DMSO repeat 2” value stood at 1.6.
As to `Cc1ccc(S(=O)(=O)c2cc3cc(C(=O)Nc4cccc(C)c4)ccc3oc2=O)cc1` [Compound C171], under setting [1], the “Firefly, cmpd/DMSO repeat 1” value came out at 6.4 and the “Firefly, cmpd/DMSO repeat 2” value came out at 4.2.
With `Cc1cccc(NC(=O)c2ccc3oc(=O)c(S(=O)(=O)c4ccc(Cl)cc4)cc3c2)c1` [Compound C173], under setting [1], the “Firefly, cmpd/DMSO repeat 1” value was 9.8 and the “Firefly, cmpd/DMSO repeat 2” value turned out to be 6.9.
For `Cc1cc(C)cc(NC(=O)c2ccc3oc(=O)c(S(=O)(=O)c4ccccc4)cc3c2)c1` [Compound C174], under setting [1], the “Firefly, cmpd/DMSO repeat 1” value came out at 5.8 and the “Firefly, cmpd/DMSO repeat 2” value came out at 14.3.
On to `Cc1ccc(S(=O)(=O)c2cc3cc(C(=O)Nc4cc(C)cc(C)c4)ccc3oc2=O)cc1` [Compound C175], for which, under setting [1], the “Firefly, cmpd/DMSO repeat 1” value is 13.2 and the “Firefly, cmpd/DMSO repeat 2” value is 11.9. Under “Table 13”, the “Firefly/Renilla (NR2F6 stable, clone F4)” value was determined as 1.1; the “Firefly, NR2F6 stable (clone F4)/pGL4” value worked out at 5.7; the “Firefly, cmpd/DMSO repeat 1” value is 13.2; the “Firefly, cmpd/DMSO repeat 2” value was determined as 11.9.
For `Cc1cc(C)cc(NC(=O)c2ccc3oc(=O)c(S(=O)(=O)c4ccc(F)cc4)cc3c2)c1` [Compound C176], under setting [1], the “Firefly, cmpd/DMSO repeat 1” value is 3.7 and the “Firefly, cmpd/DMSO repeat 2” value worked out at 9.6.
Consider `COc1ccc(NC(=O)c2ccc3oc(=O)c(S(=O)(=O)c4ccccc4)cc3c2)cc1` [Compound C177], for which, under setting [1], the “Firefly, cmpd/DMSO repeat 1” value was 17.4 and the “Firefly, cmpd/DMSO repeat 2” value was 8.2. In addition, where the note is “Table 12”, the “Firefly/Renilla (NR2F6 stable, clone F4)” value is listed as 2.3; the “Firefly, NR2F6 stable (clone F4)/pGL4” value amounted to 8.5; the “Firefly, cmpd/DMSO repeat 1” value is on record as 17.4; the “Firefly, cmpd/DMSO repeat 2” value is reported as 8.2.
For `COc1ccc(NC(=O)c2ccc3oc(=O)c(S(=O)(=O)c4ccc(C)cc4)cc3c2)cc1` [Compound C178], under setting [1], the “Firefly, cmpd/DMSO repeat 1” value stood at 15.2 and the “Firefly, cmpd/DMSO repeat 2” value is on record as 16.9.
The matching figures for `COc1ccc(NC(=O)c2ccc3oc(=O)c(S(=O)(=O)c4ccc(F)cc4)cc3c2)cc1` [Compound C179]: 8.7 and 10.1.
Regarding `COc1ccc(NC(=O)c2ccc3oc(=O)c(S(=O)(=O)c4ccc(Cl)cc4)cc3c2)cc1` [Compound C180], under setting [1], the “Firefly, cmpd/DMSO repeat 1” value was 34.0 and the “Firefly, cmpd/DMSO repeat 2” value turned out to be 34.5. In addition, under “Table 13”, the “Firefly/Renilla (NR2F6 stable, clone F4)” value was 1.1; the “Firefly, NR2F6 stable (clone F4)/pGL4” value is 13.1; the “Firefly, cmpd/DMSO repeat 1” value was 34.0; the “Firefly, cmpd/DMSO repeat 2” value stood at 34.5.
On to `CCOc1ccccc1NC(=O)c1ccc2oc(=O)c(S(=O)(=O)c3ccc(F)cc3)cc2c1` [Compound C181], for which, under setting [1], the “Firefly, cmpd/DMSO repeat 1” value is 10.4 and the “Firefly, cmpd/DMSO repeat 2” value is given as 13.5.
For the compound `O=c1oc2ccc(Cl)cc2cc1S(=O)(=O)c1cccc(F)c1` [Compound C182], under setting [1], the “Firefly, cmpd/DMSO repeat 1” value is reported as 16.2 and the “Firefly, cmpd/DMSO repeat 2” value was found to be 17.3. For the setting “Table 13”, the “Firefly/Renilla (NR2F6 stable, clone F4)” value is 1.2; the “Firefly, NR2F6 stable (clone F4)/pGL4” value was found to be 8.2; the “Firefly, cmpd/DMSO repeat 1” value is recorded as 16.2; the “Firefly, cmpd/DMSO repeat 2” value amounted to 17.3.
As for `O=c1oc2ccc(Br)cc2cc1S(=O)(=O)c1cccc(F)c1` [Compound C183], under setting [1], the “Firefly, cmpd/DMSO repeat 1” value is reported as 1.2 and the “Firefly, cmpd/DMSO repeat 2” value amounted to 1.2.
As to `COc1cccc(S(=O)(=O)c2cc3cc(Cl)ccc3oc2=O)c1` [Compound C184], under setting [1], the “Firefly, cmpd/DMSO repeat 1” value stood at 1.1 and the “Firefly, cmpd/DMSO repeat 2” value was determined as 1.4.
For the compound `COc1cccc(S(=O)(=O)c2cc3cc(Br)ccc3oc2=O)c1` [Compound C185], under setting [1], the “Firefly, cmpd/DMSO repeat 1” value stood at 2.6 and the “Firefly, cmpd/DMSO repeat 2” value was 2.4.
On to `Cc1cc(C)cc(S(=O)(=O)c2cc3cc(Cl)ccc3oc2=O)c1` [Compound C186], for which, under setting [1], the “Firefly, cmpd/DMSO repeat 1” value is 1.0 and the “Firefly, cmpd/DMSO repeat 2” value came out at 6.9.
In the case of `Cc1cc(C)cc(S(=O)(=O)c2cc3cc(Br)ccc3oc2=O)c1` [Compound C187], under setting [1], the “Firefly, cmpd/DMSO repeat 1” value is 0.8 and the “Firefly, cmpd/DMSO repeat 2” value was determined as 0.7.
For `Cc1ccc(S(=O)(=O)c2cc3cc(Cl)ccc3oc2=O)cc1Cl` [Compound C188], under setting [1], the “Firefly, cmpd/DMSO repeat 1” value turned out to be 9.4 and the “Firefly, cmpd/DMSO repeat 2” value is reported as 8.7. Besides, where the note is “Table 13”, the “Firefly/Renilla (NR2F6 stable, clone F4)” value was found to be 1.2; the “Firefly, NR2F6 stable (clone F4)/pGL4” value is listed as 5.0; the “Firefly, cmpd/DMSO repeat 1” value worked out at 9.4; the “Firefly, cmpd/DMSO repeat 2” value is given as 8.7.
